{
  "source": "patent US20220288057A1",
  "about": "“CONJOINT THERAPY FOR TREATING SEIZURE DISORDERS” (XENON PHARMACEUTICALS INC., priority 2021, published 2022)",
  "key": {"[1]": {"system": "tonic hindlimb seizure following corneal stimulation in CF-1 mice", "assay": "Mouse maximal electroshock (MES) assay, 60 Hz 50 mA corneal stimulation", "assay_type": "in vivo", "conditions": "for IC50: Mus musculus", "method": "The interaction of Compound A with other ASMs was evaluated after oral dosing in the mouse maximal electroshock (MES) assay to determine whether some combinations were favorable or unfavorable. Efficacy was quantified by calculating the fraction of animals with a tonic hindlimb seizure following corneal stimulation. Compound Preparation: Compound A was initially solubilized in DMSO. This solution was then added into a 0.5% methyl cellulose solution to create a more even and less aggregated compound suspension. Serial dilutions were prepared from the tube with the highest concentration of Compound A and the compound suspensions were further vortexed prior to animal dosing. The final concentration of DMSO was 5%, an amount with no apparent toxicity or neuroprotection in the MES assay. […] Animals: Adult male CF-1 albino mice (25-35 g) purchased from Harlan-Envigo were used. The mice were housed four per cage and had access to filtered water and chow ad libidum, throughout the experiment. MES Assay: Compounds were administered orally by gavage before testing unless indicated otherwise. During MES testing, a 60-Hz alternating current (50 mA) was delivered for 0.2 seconds through corneal electrodes to the mice. A drop of 0.5% Alcaine solution was placed on the eye prior to current delivery. The electrodes were subsequently placed gently onto the eyes of the animal and the electrical shock was initiated by triggering through a foot-pedal activator. The animals were restrained by hand and gently released as the shock was delivered and the seizure commenced. Animals were monitored for hind limb tonic extension as the end point for this test. Statistical analysis: All statistics were calculated using Prism version 7 software (Graphpad Software). The method used for each experiment is indicated in the results section. Concentration-response curves were calculated as best fits to the equation […] where X was the log of plasma concentration. Unless indicated otherwise, bottom was constrained to be 0. Top was constrained to be the value determined experimentally by vehicle control measurements. Compound A Dose Response: […]"}, "[2]": {"assay": "Clinical observations / behavioral signs in AC-MES studies", "assay_type": "in vivo, mouse", "conditions": "male, CF-1, mouse, in vivo, read-out: plasma concentration of individual mouse showing behavioral signs (tremors, decreased activity, splayed hindlimbs)", "method": "Any qualitative changes from normal behavior were recorded.\nFive oral (PO) doses of Compound A were each tested in the AC-MES model. Thirty minutes after administration of Compound A at 1 mg/kg (n=8), 3 mg/kg (n=8), 5 mg/kg (n=16), 7.5 mg/kg (n=7), and 10 mg/kg (n=17) via oral gavage to male CF-1 mice (body weights 28.2 to 43.8 g), the mice underwent a 60 Hz corneal electrical stimulus (0.2 seconds duration, 40 mA). This stimulus elicited a tonic hindlimb extension in all vehicle-dosed animals. […] An observational neurological assessment (qualitative test) was also conducted at the time of testing as a tolerability screen. Terminal plasma and brain samples were collected from all animals to obtain the levels of Compound A concentration, and to understand the relationship between efficacy and drug concentration.\nThe Blinding and Randomization, Clinical Observations, AC-MES Assay, Sample Collection and Preparation, Plasma and Brain Samples Analysis, and Bioanalysis Procedures in Example 4 were identical to those used in Example 2."}, "[3]": {"system": "6 Hz psychomotor seizures in CF-1 mice", "assay": "Mouse 6 Hz psychomotor seizure assay (34 milliampere, 3 s)", "assay_type": "in vivo", "method": "It was evaluated whether the combination of both compounds is favorable or unfavorable for efficacy by dosing Compound A and Levetiracetam alone and in combination, each at a dose that produces sub-maximal efficacy on its own. […] Plasma and brain samples were analyzed to gain an understanding of how the combination of Compound A and Levetiracetam may affect pharmacokinetics and pharmacodynamics. […] 6 Hz Psychomotor Seizure Assay: […] The animal was then securely restrained and a pair of electrodes was applied to the eyes (Electro Convulsive Therapy Unit 57800, Ugo Basile). […] Data Processing and Analysis: Statistical data analysis was performed using GraphPad Prism (version 8.2.1). Dose-response data was analyzed using a Kruskal-Wallis test, followed by Dunn's multiple comparisons. […] Dose- and concentration-response curves were generated using the Hill Langmuir equation: […]"}, "[4]": {"conditions": "Compound A 1 mg/kg PO, 0.5 h before assay"}, "[5]": {"conditions": "Compound A 1 mg/kg PO, 2 h before assay"}, "[6]": {"conditions": "Compound A 2 mg/kg PO, 0.5 h before assay"}, "[7]": {"conditions": "Compound A 2 mg/kg PO, 2 h before assay"}, "[8]": {"conditions": "Compound A 4 mg/kg PO, 0.5 h before assay"}, "[9]": {"conditions": "Compound A 4 mg/kg PO, 2 h before assay"}, "[10]": {"conditions": "Compound A 8 mg/kg PO, 0.5 h before assay"}, "[11]": {"conditions": "Compound A 8 mg/kg PO, 2 h before assay"}},
  "note": "“And” between values parts separate entries of the source, which are not always exact repeats. Equal entries are not always repeated. Where two headings read alike, the source gives them in different places. Marks after values point to notes of the source that are not given here.",
  "data": [
    {"smiles": "Cc1cc(N2CCc3cc(F)ccc3C2)cc(C)c1NC(=O)CC(C)(C)C", "note": "[Compound A, N-[4-(6-fluoro-3,4-dihydro-1H-isoquinolin-2-yl)-2,6-dimethylphenyl]-3,3-dimethylbutanamide]", "values": [
      {"measurement": "fraction of animals without tonic seizures", "setting": "[1]; Compound A 0.25 mg/kg PO 2 h alone (phenytoin study)", "result": "0/8"},
      {"measurement": "fraction of animals without tonic seizures", "setting": "[1]; Compound A 0.75 mg/kg PO 2 h alone (phenytoin study)", "result": "2/8"},
      {"measurement": "reduction of the fraction with tonic seizures", "setting": "[1]; Compound A 1 mg/kg", "result": 26.7, "unit": "%"},
      {"measurement": "maximum % seizures of fitted curve, reflecting efficacy of Compound A alone", "setting": "[1]; Compound A 1 mg/kg PO 2 h", "result": 73.3, "unit": "%"},
      {"measurement": "number of mice without tonic seizures/total", "setting": "[1]; Compound A 1 mg/kg PO 2 h + Vehicle IP 0.5 h (valproic acid study)", "result": "4/15"},
      {"measurement": "fraction of mice without tonic seizures", "setting": "[1]; Compound A 1 mg/kg PO 2 h alone (levetiracetam study)", "result": "2/11"},
      {"measurement": "fraction of animals without tonic seizures", "setting": "[1]; Compound A 1 mg/kg PO 2 h alone (phenytoin study)", "result": "2/8"},
      {"measurement": "number of mice with tonic seizures/total number tested", "setting": "[1]; [4]", "result": "4/7"},
      {"measurement": "percentage of mice protected from hindlimb tonic extensor component", "setting": "[1]; [4]", "result": 42.9, "unit": "%"},
      {"measurement": "number of mice with tonic seizures/total number tested", "setting": "[1]; [5]", "result": "5/7"},
      {"measurement": "percentage of mice protected from hindlimb tonic extension", "setting": "[1]; [5]", "result": 28.6, "unit": "%"},
      {"measurement": "number of mice with tonic seizures/total number tested", "setting": "[1]; [6]", "result": "2/7"},
      {"measurement": "percentage of mice protected from hindlimb tonic extensor component", "setting": "[1]; [6]", "result": 71.4, "unit": "%"},
      {"measurement": "number of mice with tonic seizures/total number tested", "setting": "[1]; [7]", "result": "4/7"},
      {"measurement": "percentage of mice protected from hindlimb tonic extension", "setting": "[1]; [7]", "result": 42.9, "unit": "%"},
      {"measurement": "fraction of animals without tonic seizures", "setting": "[1]; Compound A 2.5 mg/kg PO 2 h alone (phenytoin study)", "result": "4/8"},
      {"measurement": "number of mice with tonic seizures/total number tested", "setting": "[1]; [8]", "result": "1/7"},
      {"measurement": "percentage of mice protected from hindlimb tonic extensor component", "setting": "[1]; [8]", "result": 85.7, "unit": "%"},
      {"measurement": "number of mice with tonic seizures/total number tested", "setting": "[1]; [9]", "result": "2/7"},
      {"measurement": "percentage of mice protected from hindlimb tonic extension", "setting": "[1]; [9]", "result": 71.4, "unit": "%"},
      {"measurement": "number of mice with tonic seizures/total number tested", "setting": "[1]; [10]", "result": "3/7"},
      {"measurement": "percentage of mice protected from hindlimb tonic extensor component", "setting": "[1]; [10]", "result": 71.4, "unit": "%"},
      {"measurement": "number of mice with tonic seizures/total number tested", "setting": "[1]; [11]", "result": "1/7"},
      {"measurement": "percentage of mice protected from hindlimb tonic extension", "setting": "[1]; [11]", "result": 85.7, "unit": "%"},
      {"measurement": "fraction of mice without tonic seizures", "setting": "[1]; Compound A […] PO 2 h alone (levetiracetam study)", "result": "3/8"},
      {"measurement": "IC50", "setting": "[1]; Compound A PO alone, data 2 hours after dosing, read-out: IC50 based upon brain concentration (inhibition of tonic seizures)", "result": 275, "unit": "nM"},
      {"measurement": "IC50", "setting": "[1]; Compound A PO alone, data 2 hours after dosing, read-out: IC50 based upon plasma concentration (inhibition of tonic seizures)", "result": 154, "unit": "nM"},
      {"measurement": "IC50", "setting": "[1]; Compound A alone (phenytoin study), read-out: IC50 for Compound A (inhibition of tonic seizures, plasma concentration)", "result": 147, "unit": "nM"},
      {"measurement": "concentration at 30 min", "setting": "[2]; 7.5 mg/kg, Study 2B, Compound A 7.5 mg/kg group", "result": 746, "unit": "nM"},
      {"measurement": "concentration at 30 min", "setting": "[2]; 7.5 mg/kg, Study 4B, Compound A 7.5 mg/kg group", "result": 750, "unit": "nM"},
      {"measurement": "concentration at 30 min", "setting": "[2]; 10 mg/kg, Study 2A, Compound A 10 mg/kg group", "result": 391, "unit": "nM"},
      {"measurement": "concentration at 30 min", "setting": "[2]; 10 mg/kg, Study 4A, Compound A 10 mg/kg group", "result": 390, "unit": "nM"},
      {"measurement": "concentration at 30 min", "setting": "[2]; Study 2B, Compound A 10 mg/kg group, two mice", "result": 608, "unit": "nM"},
      {"measurement": "ED20", "setting": "[3]; Compound A PO 1 h, Study 3A dose response curve", "result": "4 mg/kg and 4.13 mg/kg"},
      {"measurement": "ED50", "setting": "[3]; Mus musculus, Compound A PO 1 h, Study 3A dose response curve", "result": 6.48, "unit": "mg/kg"},
      {"measurement": "EC50", "setting": "[3]; Mus musculus, Compound A PO 1 h, Study 3A, read-out: brain EC50", "result": 540, "unit": "nM"},
      {"measurement": "EC50", "setting": "[3]; Mus musculus, Compound A PO 1 h, Study 3A, read-out: plasma EC50", "result": 350, "unit": "nM"},
      {"measurement": "Fraction Seizing", "setting": "[3]; Studies 3B+3C combined, Compound A 4 mg/kg PO 1 h alone", "result": "13/14*"},
      {"measurement": "Fraction Seizing", "setting": "[3]; Study 3A, Compound A 1 mg/kg PO, 1 h", "result": "8/8"},
      {"measurement": "Fraction Seizing", "setting": "[3]; Study 3A, Compound A 3 mg/kg PO, 1 h", "result": "8/8"},
      {"measurement": "Fraction Seizing", "setting": "[3]; Study 3A, Compound A 5 mg/kg PO, 1 h", "result": "5/8"},
      {"measurement": "Fraction Seizing", "setting": "[3]; Study 3A, Compound A 8 mg/kg PO, 1 h", "result": "3/8"},
      {"measurement": "Fraction Seizing", "setting": "[3]; Study 3B, Compound A 4 mg/kg PO 1 h alone", "result": "8/8"},
      {"measurement": "Fraction Seizing", "setting": "[3]; Study 3C, Compound A 4 mg/kg PO 1 h alone", "result": "5/6*"},
      {"measurement": "animals protected from seizing", "setting": "[3]; Study 3C, Compound A 4 mg/kg PO alone", "result": "1/7"}
    ]}
  ]
}
